Measured values as given in US6635771B2, “N-benzhydryl indole compounds” (Wyeth, priority 2001, dated 2003).

Each compound was assayed against T1, cPLA2 (Homo sapiens, UniProt P47712) (assay: Coumarine Assay). Settings: 60 μM 7-hydroxycoumarinyl 6-heptenoate substrate, 4 μg cPLA2, pH 7.5, fluorescence ex 360 nm / em 460 nm; read-out: Coumarin IC50.
T1 sequence (P47712 1-749): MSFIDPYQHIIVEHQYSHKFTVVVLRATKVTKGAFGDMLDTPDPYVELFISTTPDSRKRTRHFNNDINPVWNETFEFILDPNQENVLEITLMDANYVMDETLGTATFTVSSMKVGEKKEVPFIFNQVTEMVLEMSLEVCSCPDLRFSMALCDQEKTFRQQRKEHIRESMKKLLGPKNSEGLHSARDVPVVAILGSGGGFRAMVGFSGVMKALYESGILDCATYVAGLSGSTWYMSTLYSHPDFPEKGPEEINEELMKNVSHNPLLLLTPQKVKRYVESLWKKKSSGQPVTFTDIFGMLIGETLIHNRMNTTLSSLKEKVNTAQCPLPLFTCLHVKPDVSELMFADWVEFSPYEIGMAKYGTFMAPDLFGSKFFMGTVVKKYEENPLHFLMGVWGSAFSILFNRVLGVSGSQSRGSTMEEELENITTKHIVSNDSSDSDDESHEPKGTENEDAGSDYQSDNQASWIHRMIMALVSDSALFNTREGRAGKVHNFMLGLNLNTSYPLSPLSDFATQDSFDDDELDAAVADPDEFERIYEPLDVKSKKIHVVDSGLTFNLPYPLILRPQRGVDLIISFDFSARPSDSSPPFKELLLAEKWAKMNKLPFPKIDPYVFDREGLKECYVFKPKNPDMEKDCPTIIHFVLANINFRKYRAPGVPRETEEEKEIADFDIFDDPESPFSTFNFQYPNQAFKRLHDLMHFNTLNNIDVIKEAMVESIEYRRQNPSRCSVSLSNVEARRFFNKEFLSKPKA
Format: biochemical
Method: Inhibitors were mixed with 200 μL assay buffer (80 mM Heped, pH 7.5, 1 mM EDTA) containing 60 μM 7-hydroxycoumarinyl 6-heptenoate. The reaction was initiated by adding 4 μg cPLA2 in 50 μL assay buffer. Hydrolysis of the 7-hydroxycounarimyl 6-heptenoate ester was monitored in a fluorometer by exciting at 360 nm and monitoring emission at 460 nm. Enzyme activity is proportional to the increase in emission at 460 nm per minute. In the presence of a cPLA2 inhibitor, the rate of increase is less.

**Q.** With `O=C(O)c1ccc(OCCc2c(CCNS(=O)(=O)Cc3ccc([N+](=O)[O-])cc3)n(C(c3ccccc3)c3ccccc3)c3ccc(Cl)cc23)cc1` [Example 54, 4-{2-[1-benzhydryl-5-chloro-2-(2-{[(4-nitrobenzyl)sulfonyl]amino}ethyl)-1H-indol-3-yl]ethoxy}benzoic acid] as the compound, how does the IC50 read?
**A.** Its IC50 is 310 nM.

**Q.** `O=C(O)c1ccc(OCCc2c(CCNS(=O)(=O)Cc3ccccn3)n(C(c3ccccc3)c3ccccc3)c3ccc(Cl)cc23)cc1` [Example 51] was tested. Which IC50 did it give?
**A.** Its IC50 is 2200 nM.

**Q.** With `COc1cccc(CS(=O)(=O)NCCc2c(CCOc3ccc(C(=O)O)cc3)c3cc(Cl)ccc3n2C(c2ccccc2)c2ccccc2)c1` [Example 77, 4-{2-[1-Benzhydryl-5chloro-2-(2-{[(3-methoxybenzyl)sulfonyl]amino}ethyl)-1H-indol-3-yl]ethoxy}benzoic acid] as the compound, how does the IC50 read?
**A.** Its IC50 is 480 nM.

**Q.** With `O=C(O)c1ccc(OCCc2c(CCNS(=O)(=O)CCN3CCC4(CC3)OCCO4)n(C(c3ccccc3)c3ccccc3)c3ccc(Cl)cc23)cc1` [Example 90, 4-(2-{1-benzhydryl-5-chloro-2-[2-({[2-(1,4-dioxa-8-azaspiro[4.5]dec-8-yl)ethyl]sulfonyl}amino)ethyl]-1H-indol-3-yl}ethoxy)benzoic acid] as the compound, how does the IC50 read?
**A.** Its IC50 is 650 nM.

**Q.** With `Cc1cc(C)cc(CS(=O)(=O)NCCc2c(CCOc3ccc(C(=O)O)cc3)c3cc(Cl)ccc3n2C(c2ccccc2)c2ccccc2)c1` [Example 78, 4-{2-[1-Benzhydryl-5-chloro-2-(2-{[(3,5-dimethylbenzyl)sulfonyl]amino}ethyl)-1H-indol-3-yl]ethoxy)benzoic acid] as the compound, how does the IC50 read?
**A.** Its IC50 is 340 nM.

**Q.** How did the IC50 turn out when `O=C(O)c1ccc(OCCc2c(CCNS(=O)(=O)Cc3cc(C(F)(F)F)cc(C(F)(F)F)c3)n(C(c3ccccc3)c3ccccc3)c3ccc(Cl)cc23)cc1` [Example 24, 4-(2-{1-benzhydryl-2-[2-({[3,5-bis(trifluoromethyl)benzyl]sulfonyl}amino)ethyl]-5-chloro-1H-indol-3-yl}ethoxy)benzoic acid] was run?
**A.** The IC50 was 340 nM.

**Q.** Which IC50 does the source give for `O=C(O)c1ccc(OCCc2c(CCNS(=O)(=O)CCc3cccc4ccccc34)n(C(c3ccccc3)c3ccccc3)c3ccc(Cl)cc23)cc1` [Example 8] here?
**A.** Its IC50 is 2000 nM.

**Q.** For `Cc1ccccc1CS(=O)(=O)NCCc1c(CCOc2ccc(C(=O)O)cc2)c2cc(Cl)ccc2n1C(c1ccccc1)c1ccccc1` [Example 79, 4-{2-[1-Benzhydryl-5-chloro-2-(2-{[(2-methylbenzyl)sulfonyl]amino}ethyl)-1H-indol3-yl]ethoxy}benzoic acid], which IC50 is on record?
**A.** The IC50 was 150 nM.

**Q.** Which IC50 does the source give for `O=C(O)c1ccc(CCCc2c(CCNS(=O)(=O)Cc3cccc(Cl)c3)n(C(c3ccccc3)c3ccccc3)c3ccc(Cl)cc23)cc1` [Example 66, 4-{3-[1-benzhydryl-5chloro-2-(2{[(3-chlorobenzyl)sulfonyl]amino}ethyl)-1H-indol-3-yl]propyl}benzoic acid] here?
**A.** Its IC50 is 150 nM.

**Q.** With `O=C(O)c1ccc(OCCc2c(CCNS(=O)(=O)CCN3CCCC3)n(C(c3ccccc3)c3ccccc3)c3ccc(Cl)cc23)cc1` [Example 139, 4-(2-{1-Benzhydryl-5-chloro-2-[2-(2-pyrrolidin-1-yl-ethanesulfonylamino)-ethyl]-1H-indol-3-yl}-ethoxy)-benzoic acid] as the compound, how does the IC50 read?
**A.** The IC50 was 1700 nM.

**Q.** With `CC1CCCCN1CCS(=O)(=O)NCCc1c(CCOc2ccc(C(=O)O)cc2)c2cc(Cl)ccc2n1C(c1ccccc1)c1ccccc1` (stereo not shown) [Example 114, 4-[2-(1-Benzhydryl-5-chloro-2-{2-[2-(2-methyl-piperidin-1-yl)-ethanesulfonylamino]-ethyl}-1H-indol-3-yl)-ethoxy]-benzoic acid] as the compound, how does the IC50 read?
**A.** The IC50 was 1100 nM.

**Q.** How did the IC50 turn out when `O=C(O)c1ccc(OCCc2c(CCNS(=O)(=O)Cc3ccc(Cl)c(Cl)n3)n(C(c3ccccc3)c3ccccc3)c3ccc(Cl)cc23)cc1` [Example 76] was run?
**A.** The IC50 was 400 nM.

**Q.** `O=C(O)c1ccc(OCCc2c(CCNS(=O)(=O)Cc3cccc(C(=O)O)c3)n(C(c3ccccc3)c3ccccc3)c3ccc(Cl)cc23)cc1` [Example 20, 3-({[(2-{1-benzhydryl-3-[2-(4-carboxyphenoxy)ethyl]-5-chloro-1H-indol-2-yl}ethyl)amino]sulfonyl}methyl)benzoic acid] was tested. Which IC50 did it give?
**A.** The IC50 was 1100 nM.
